Test results taken from patent publication US20230398130A1, “METHODS AND COMPOSITIONS FOR DIFFERENTIATING STEM CELLS” (Massachusetts Institute of Technology, priority 2020, published 2023).

Columns and labels:
ISC-enriched organoids [1] = experiment: Primary screen, 384-well 2.5-D organoid differentiation (ENR+CD, 6 days): carbachol-induced lysozyme secretion (LYZ.S); type: cell-based, murine; details: for Dose.FC.LYZ.S (log 2 fold change, carbachol-induced lysozyme secretion) / Dose.FC.LYZ.S (log 2 fold change): vs plate median; for Dose.FC.LYZ.S (log 2 fold change) / Dose.FC.LYZ.S / Z.LYZ.S / SSMD.LYZ.S: primary screen; for Dose.FC.LYZ.S: FC vs plate median; for Z.LYZ.S: standard z score; for SSMD.LYZ.S: strictly standardized mean difference
Text: (§1) High-throughput screening.

ISC-enriched organoids [2] = experiment: Primary screen, 384-well 2.5-D organoid differentiation (ENR+CD, 6 days): basal lysozyme secretion (LYZ.NS); type: cell-based, murine; details: for Dose.FC.LYZ.NS (log 2 fold change, basal lysozyme secretion) / Dose.FC.LYZ.NS (log 2 fold change): vs plate median; for Dose.FC.LYZ.NS: FC vs plate median; for Z.LYZ.NS: standard z score; for SSMD.LYZ.NS: strictly standardized mean difference
Text: as §1

ISC-enriched organoids [3] = experiment: Primary screen, 384-well 2.5-D organoid differentiation (ENR+CD, 6 days, Target Selective Inhibitor Library, vs whole-plate median): ATP (CellTiter-Glo 3D, CTG); details: for Dose.FC.CTG (log 2 fold change, ATP) / Dose.FC.CTG (log 2 fold change): vs plate median; for Dose.FC.CTG: FC vs plate median; for Z.CTG: standard z score; for SSMD.CTG: strictly standardized mean difference
[4] = 1st of the 4 dose lines of the treatment (dose not given)
[5] = 2nd of the 4 dose lines of the treatment (dose not given)
[6] = 3rd of the 4 dose lines of the treatment (dose not given)
[7] = 4th of the 4 dose lines of the treatment (dose not given)
[8] = primary screen, 1st of the 4 dose lines of the treatment (dose not given)
[9] = primary screen, 2nd of the 4 dose lines of the treatment (dose not given)
[10] = primary screen, 3rd of the 4 dose lines of the treatment (dose not given)
[11] = primary screen, 4th of the 4 dose lines of the treatment (dose not given)

`c1ccc(NCc2ccc(CNc3ccccn3)cc2)nc1` [WZ811] was tested, and the “Dose.FC.LYZ.S (log 2 fold change, carbachol-induced lysozyme secretion)” value (ISC-enriched organoids [1]; dose 0.08 uM) was 0.296, the “Dose.FC.LYZ.S (log 2 fold change, carbachol-induced lysozyme secretion)” value (ISC-enriched organoids [1]; dose 0.40 uM) was 0.007 and the “Dose.FC.LYZ.S (log 2 fold change, carbachol-induced lysozyme secretion)” value (ISC-enriched organoids [1]; dose 2.00 uM) was 0.074. For the same compound, the “Dose.FC.LYZ.S (log 2 fold change, carbachol-induced lysozyme secretion)” value (ISC-enriched organoids [1]; dose 10.00 uM) was 0.019, the “Z.LYZ.NS (standard z score)” value (ISC-enriched organoids [2]; dose 0.08 uM) was 1.337 and the “Dose.FC.LYZ.NS (log 2 fold change, basal lysozyme secretion)” value (ISC-enriched organoids [2]; dose 0.08 uM) was 0.154. For the same compound, the “Z.LYZ.NS (standard z score)” value (ISC-enriched organoids [2]; dose 0.40 uM) was 0.162, the “Dose.FC.LYZ.NS (log 2 fold change, basal lysozyme secretion)” value (ISC-enriched organoids [2]; dose 0.40 uM) was 0.019 and the “Z.LYZ.NS (standard z score)” value (ISC-enriched organoids [2]; dose 2.00 uM) was 0.815. For the same compound, the “Dose.FC.LYZ.NS (log 2 fold change, basal lysozyme secretion)” value (ISC-enriched organoids [2]; dose 2.00 uM) was 0.094, the “Z.LYZ.NS (standard z score)” value (ISC-enriched organoids [2]; dose 10.00 uM) was 0.045 and the “Dose.FC.LYZ.NS (log 2 fold change, basal lysozyme secretion)” value (ISC-enriched organoids [2]; dose 10.00 uM) was 0.005. The “Z.CTG (standard z score)” value (ISC-enriched organoids [3]; dose 0.08 uM) was 0.334, the “Dose.FC.CTG (log 2 fold change, ATP)” value (ISC-enriched organoids [3]; dose 0.08 uM) was 0.140 and the “Z.CTG (standard z score)” value (ISC-enriched organoids [3]; dose 0.40 uM) was −0.082. The “Dose.FC.CTG (log 2 fold change, ATP)” value (ISC-enriched organoids [3]; dose 0.40 uM) was −0.034, the “Z.CTG (standard z score)” value (ISC-enriched organoids [3]; dose 2.00 uM) was 0.184 and the “Dose.FC.CTG (log 2 fold change, ATP)” value (ISC-enriched organoids [3]; dose 2.00 uM) was 0.077. For the same compound, the “Z.CTG (standard z score)” value (ISC-enriched organoids [3]; dose 10.00 uM) was 0.104 and the “Dose.FC.CTG (log 2 fold change, ATP)” value (ISC-enriched organoids [3]; dose 10.00 uM) was 0.044.

`Cc1ccc(S(=O)(=O)Cc2nc(-c3ccc(C(=O)NCc4cccnc4)cc3)oc2C)cc1` [STF-118804] was tested, and the “Dose.FC.LYZ.S (log 2 fold change)” value (ISC-enriched organoids [1]; Dose 0.08 uM) was −0.257, the “Dose.FC.LYZ.S (log 2 fold change)” value (ISC-enriched organoids [1]; Dose 0.40 uM) was −0.212 and the “Dose.FC.LYZ.S (log 2 fold change)” value (ISC-enriched organoids [1]; Dose 2.00 uM) was −0.271. The “Dose.FC.LYZ.S (log 2 fold change)” value (ISC-enriched organoids [1]; Dose 10.00 uM) was −0.300, the “Z.LYZ.NS (standard z score)” value (ISC-enriched organoids [2]; Dose 0.08 uM, primary screen) was −1.349 and the “Dose.FC.LYZ.NS (log 2 fold change)” value (ISC-enriched organoids [2]; Dose 0.08 uM, primary screen) was −0.155. For the same compound, the “Z.LYZ.NS (standard z score)” value (ISC-enriched organoids [2]; Dose 0.40 uM, primary screen) was −1.824, the “Dose.FC.LYZ.NS (log 2 fold change)” value (ISC-enriched organoids [2]; Dose 0.40 uM, primary screen) was −0.210 and the “Z.LYZ.NS (standard z score)” value (ISC-enriched organoids [2]; Dose 2.00 uM, primary screen) was −1.502. For the same compound, the “Dose.FC.LYZ.NS (log 2 fold change)” value (ISC-enriched organoids [2]; Dose 2.00 uM, primary screen) was −0.172, the “Z.LYZ.NS (standard z score)” value (ISC-enriched organoids [2]; Dose 10.00 uM, primary screen) was −1.541 and the “Dose.FC.LYZ.NS (log 2 fold change)” value (ISC-enriched organoids [2]; Dose 10.00 uM, primary screen) was −0.177. For the same compound, the “Z.CTG (standard z score)” value (ISC-enriched organoids [3]; Dose 0.08 uM, primary screen) was −0.360, the “Dose.FC.CTG (log 2 fold change)” value (ISC-enriched organoids [3]; Dose 0.08 uM, primary screen) was −0.151 and the “Z.CTG (standard z score)” value (ISC-enriched organoids [3]; Dose 0.40 uM, primary screen) was −3.346. The “Dose.FC.CTG (log 2 fold change)” value (ISC-enriched organoids [3]; Dose 0.40 uM, primary screen) was −1.401, the “Z.CTG (standard z score)” value (ISC-enriched organoids [3]; Dose 2.00 uM, primary screen) was −2.189 and the “Dose.FC.CTG (log 2 fold change)” value (ISC-enriched organoids [3]; Dose 2.00 uM, primary screen) was −0.916. The “Z.CTG (standard z score)” value (ISC-enriched organoids [3]; Dose 10.00 uM, primary screen) was −3.195 and the “Dose.FC.CTG (log 2 fold change)” value (ISC-enriched organoids [3]; Dose 10.00 uM, primary screen) was −1.338.

`O=C(Nc1cc(C(F)(F)F)cc(C(F)(F)F)c1)c1cc(Cl)ccc1O` [IMD 0354] gave a Dose.FC.LYZ.S (ISC-enriched organoids [1]; Dose 0.08 uM) of −0.047 log 2 fold change, a Dose.FC.LYZ.S (ISC-enriched organoids [1]; Dose 0.40 uM) of 0.043 log 2 fold change and a Dose.FC.LYZ.S (ISC-enriched organoids [1]; Dose 2.00 uM) of 0.083 log 2 fold change. The Dose.FC.LYZ.S (ISC-enriched organoids [1]; Dose 10.00 uM) was −0.128 log 2 fold change, the Z.LYZ.S (ISC-enriched organoids [1]; [4]) was −0.303 and the Z.LYZ.S (ISC-enriched organoids [1]; [5]) was 0.281. For the same compound, the Z.LYZ.S (ISC-enriched organoids [1]; [6]) was 0.534, the Z.LYZ.S (ISC-enriched organoids [1]; [7]) was −0.826 and the SSMD.LYZ.S (ISC-enriched organoids [1]; [4]) was −0.335. It also gave an SSMD.LYZ.S (ISC-enriched organoids [1]; [5]) of 0.203, an SSMD.LYZ.S (ISC-enriched organoids [1]; [6]) of 0.537 and an SSMD.LYZ.S (ISC-enriched organoids [1]; [7]) of −0.736. It also gave a Dose.FC.LYZ.NS (ISC-enriched organoids [2]; Dose 0.08 uM, primary screen) of 0.004 log 2 fold change, a Z.LYZ.NS (ISC-enriched organoids [2]; Dose 0.08 uM, primary screen) of 0.035 and a Dose.FC.LYZ.NS (ISC-enriched organoids [2]; Dose 0.40 uM, primary screen) of 0.101 log 2 fold change. The Z.LYZ.NS (ISC-enriched organoids [2]; Dose 0.40 uM, primary screen) was 0.880, the Dose.FC.LYZ.NS (ISC-enriched organoids [2]; Dose 2.00 uM, primary screen) was 0.097 log 2 fold change and the Z.LYZ.NS (ISC-enriched organoids [2]; Dose 2.00 uM, primary screen) was 0.847. For the same compound, the Dose.FC.LYZ.NS (ISC-enriched organoids [2]; Dose 10.00 uM, primary screen) was −0.089 log 2 fold change, the Z.LYZ.NS (ISC-enriched organoids [2]; Dose 10.00 uM, primary screen) was −0.777 and the SSMD.LYZ.NS (ISC-enriched organoids [2]; [8]) was 0.021. The SSMD.LYZ.NS (ISC-enriched organoids [2]; [9]) was 0.439, the SSMD.LYZ.NS (ISC-enriched organoids [2]; [10]) was 0.612 and the SSMD.LYZ.NS (ISC-enriched organoids [2]; [11]) was −0.729. The Dose.FC.CTG (ISC-enriched organoids [3]; Dose 0.08 uM, primary screen) was −0.007 log 2 fold change, the Z.CTG (ISC-enriched organoids [3]; Dose 0.08 uM, primary screen) was −0.017 and the Dose.FC.CTG (ISC-enriched organoids [3]; Dose 0.40 uM, primary screen) was 0.117 log 2 fold change. For the same compound, the Z.CTG (ISC-enriched organoids [3]; Dose 0.40 uM, primary screen) was 0.280, the Dose.FC.CTG (ISC-enriched organoids [3]; Dose 2.00 uM, primary screen) was 0.076 log 2 fold change and the Z.CTG (ISC-enriched organoids [3]; Dose 2.00 uM, primary screen) was 0.181. The Dose.FC.CTG (ISC-enriched organoids [3]; Dose 10.00 uM, primary screen) was −0.480 log 2 fold change, the Z.CTG (ISC-enriched organoids [3]; Dose 10.00 uM, primary screen) was −1.146 and the SSMD.CTG (ISC-enriched organoids [3]; [8]) was −0.019. The SSMD.CTG (ISC-enriched organoids [3]; [9]) was 0.258, the SSMD.CTG (ISC-enriched organoids [3]; [10]) was 0.274 and the SSMD.CTG (ISC-enriched organoids [3]; [11]) was −0.748.
